# Test results taken from PMC4225009, “Structure-activity-relationship study of N-acyl-N-phenylpiperazines as potential inhibitors of the Excitatory Amino Acid Transporters (EAATs): improving the potency of a micromolar screening Hit is not truism” (SpringerPlus, 2013).
# Read-outs that look alike come from different tables or passages of the source.
# Columns and labels:
# human EAAT2 = molecular target: T1, human EAAT2 (Homo sapiens, UniProt P43004); assay: [3H]-D-aspartate uptake assay at HEK293 cells stably expressing human EAAT2; type: cell-based
# T1 construct: expressed in transfected cells
# T1 sequence (P43004 whole entry): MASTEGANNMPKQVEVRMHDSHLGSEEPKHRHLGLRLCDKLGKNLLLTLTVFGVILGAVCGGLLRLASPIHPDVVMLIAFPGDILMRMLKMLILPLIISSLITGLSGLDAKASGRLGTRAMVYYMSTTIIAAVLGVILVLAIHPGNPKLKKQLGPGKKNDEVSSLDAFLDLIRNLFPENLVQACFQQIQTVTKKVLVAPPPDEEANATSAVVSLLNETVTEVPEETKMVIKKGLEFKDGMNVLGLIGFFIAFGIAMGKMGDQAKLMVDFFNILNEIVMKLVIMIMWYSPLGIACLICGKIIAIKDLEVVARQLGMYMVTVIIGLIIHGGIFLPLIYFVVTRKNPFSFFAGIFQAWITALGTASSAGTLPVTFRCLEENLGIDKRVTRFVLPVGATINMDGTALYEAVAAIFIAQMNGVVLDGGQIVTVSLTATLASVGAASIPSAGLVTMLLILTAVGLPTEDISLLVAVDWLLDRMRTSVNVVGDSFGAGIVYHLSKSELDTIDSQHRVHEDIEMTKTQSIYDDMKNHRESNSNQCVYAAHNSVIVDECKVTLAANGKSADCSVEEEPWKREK
# Source text: (§1) In total, […] piperazine analogs 2.1-2.40 and 3.1-3.12 were characterized pharmacologically at stable HEK293 cells expressing human EAAT1-3 in a [^3H]-D-aspartate uptake assay, (Jensen & Bräuner-Osborne [2004]) and the results are summarized in Table 1 and Table 2. […] Usually, such findings would lead to the conclusion that the bicyclo-[2.2.1]-heptanyl group occupies a promiscuous hydrophobic pocket, which could be optimized for increased potency. However, upon increasing or decreasing the hydrophobic bulk and/or flexibility, a clear drop in potency was observed (analogs 2.1-2.17, Table 1). […] These findings could open up for the hypothesis that the pocket is indeed not hydrophobic but instead hydrophilic in nature. Upon binding of the hydrophobic alkane group, water molecules are forced out and ligand binding is entropically driven rather than enthalpically. Thus analogs 2.18-2.31, which comprise a hydrophobic group, could be potential inhibitors.
# (§2) Analogs 2.22-2.31, 2.36-2.40, 3.3, 3.4, 3.6 and 3.12 were obtained as 5 mg portions pre-dissolved in DMSO from ChemBridge corporation and used directly in the [3H]-Asp-uptake assay.
# human EAAT1 = molecular target: T2, human EAAT1 (Homo sapiens, UniProt P43003); assay: [3H]-D-aspartate uptake assay at HEK293 cells stably expressing human EAAT1; type: cell-based
# T2 construct: expressed in transfected cells
# T2 sequence (P43003 whole entry): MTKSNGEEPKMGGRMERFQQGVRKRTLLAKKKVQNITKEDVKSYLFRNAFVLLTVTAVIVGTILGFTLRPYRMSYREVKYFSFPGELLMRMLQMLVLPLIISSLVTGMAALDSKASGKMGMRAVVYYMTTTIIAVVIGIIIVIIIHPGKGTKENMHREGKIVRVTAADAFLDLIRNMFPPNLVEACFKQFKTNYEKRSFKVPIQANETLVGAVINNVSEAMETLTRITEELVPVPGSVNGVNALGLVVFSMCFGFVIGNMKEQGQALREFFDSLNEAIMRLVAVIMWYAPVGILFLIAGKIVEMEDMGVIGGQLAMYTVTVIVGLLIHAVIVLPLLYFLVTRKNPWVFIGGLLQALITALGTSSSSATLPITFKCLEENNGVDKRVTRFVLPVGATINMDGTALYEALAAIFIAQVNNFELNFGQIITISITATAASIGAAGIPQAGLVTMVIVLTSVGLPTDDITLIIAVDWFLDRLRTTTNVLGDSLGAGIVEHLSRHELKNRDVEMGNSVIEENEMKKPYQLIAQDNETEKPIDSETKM
# Source text: as §1, §2
# human EAAT1-3 = assay: [3H]-D-aspartate uptake assay, statements made for EAAT1-3 together; type: cell-based; settings: for inhibitory activity at EAAT1-3 (in words): HEK293 cells expressing human EAAT1-3, [3H]-D-aspartate uptake; for drop in inhibitory potency across the subtypes: relative to the lead, EAAT1-3
# Source text: as §1, §2
# human EAAT3 = molecular target: T3, human EAAT3 (Homo sapiens, UniProt P43005); assay: [3H]-D-aspartate uptake assay at HEK293 cells stably expressing human EAAT3; type: cell-based
# T3 construct: expressed in transfected cells
# T3 sequence (P43005 1-524): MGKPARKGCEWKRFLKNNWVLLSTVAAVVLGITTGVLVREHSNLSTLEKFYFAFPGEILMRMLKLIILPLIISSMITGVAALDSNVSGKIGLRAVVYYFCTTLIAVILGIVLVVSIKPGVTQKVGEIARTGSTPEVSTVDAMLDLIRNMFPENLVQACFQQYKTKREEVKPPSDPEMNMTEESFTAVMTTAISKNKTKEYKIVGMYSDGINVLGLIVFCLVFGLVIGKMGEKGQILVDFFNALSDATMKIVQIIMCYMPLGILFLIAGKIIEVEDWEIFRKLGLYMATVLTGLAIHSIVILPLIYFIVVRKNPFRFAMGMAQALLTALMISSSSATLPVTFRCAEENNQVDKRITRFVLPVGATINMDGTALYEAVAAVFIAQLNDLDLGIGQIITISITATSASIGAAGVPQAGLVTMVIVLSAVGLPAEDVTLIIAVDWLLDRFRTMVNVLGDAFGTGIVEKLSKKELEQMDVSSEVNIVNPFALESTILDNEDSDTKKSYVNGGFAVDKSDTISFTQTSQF
# Source text: as §1, §2
# [1] = D-aspartate uptake, HEK293 cells stably expressing human EAAT2, analogs 3.1-3.12 (Table 2), read-out: EAAT2 IC50
# [2] = D-aspartate uptake, HEK293 cells stably expressing human EAAT1, analogs 3.1-3.12 (Table 2), read-out: EAAT1 IC50
# [3] = D-aspartate uptake, HEK293 cells stably expressing human EAAT3, analogs 3.1-3.12 (Table 2), read-out: EAAT3 IC50
# [4] = [3H]-D-aspartate uptake, HEK293 cells stably expressing human EAAT2, analogs 1 and 2.1-2.40 (Table 1), read-out: EAAT2 IC50
# [5] = [3H]-D-aspartate uptake, HEK293 cells stably expressing human EAAT1, analogs 1 and 2.1-2.40 (Table 1), read-out: EAAT1 IC50
# [6] = [3H]-D-aspartate uptake, HEK293 cells stably expressing human EAAT3, analogs 1 and 2.1-2.40 (Table 1), read-out: EAAT3 IC50
SMILES,IC50 (human EAAT2; [1]) [µM],IC50 (human EAAT1; [2]) [µM],melting point,inhibitory activity at EAAT1-3 (in words) (human EAAT1-3),IC50 (human EAAT3; [3]) [µM],IC50 (human EAAT2; [4]) [µM],IC50 (human EAAT1; [5]) [µM],drop in inhibitory potency across the subtypes (human EAAT1-3),IC50 (human EAAT3; [6]) [µM],IC50 (human EAAT2) [µM],IC50 (human EAAT1) [µM],IC50 (human EAAT3) [µM]
"O=C(C1CC2CCC1C2)N1CCN(c2ccc(C(F)(F)F)cc2)CC1 (racemic) [(±)-endo-exo-3.2, (±)-endo-exo-Bicyclo[2.2.1]heptan-2-yl(4-(4-(trifluoromethyl)phenyl)piperazin-1-yl)methanone]",> 300,> 300,126 to 127 °C (dec.),loss of inhibitory activity,> 300,,,,,,,
"O=C(C1CC2CCC1C2)N1CCN(c2cccc(O)c2)CC1 (racemic) [(±)-endo-exo-3.8, (±)-endo-exo-Bicyclo[2.2.1]heptan-2-yl(4-(3-hydroxyphenyl)piperazin-1-yl)methanone]",> 300,> 300,187 to 189 °C (dec.),,> 300,,,,,,,
"O=C(C1CCCCC1)N1CCN(c2cccc(C(F)(F)F)c2)CC1 [2.3, Cyclohexyl(4-(3-(trifluoromethyl)phenyl)piperazin-1-yl)methanone]",,,,,,~100,~100,5-15 fold,~100,,,
"O=C(c1ccccc1)N1CCN(c2cccc(C(F)(F)F)c2)CC1 [2.11, Phenyl(4-(3-(trifluoromethyl)phenyl)piperazin-1-yl)methanone]",,,,,,> 100,~150,5-15 fold,> 100,,,
"O=C(c1ccc2c(c1)OCO2)N1CCN(c2cccc(C(F)(F)F)c2)CC1 [2.12, Benzo[d][1,3]dioxol-5-yl(4-(3-(trifluoromethyl)phenyl)piperazin-1-yl)methanone]",,,87 to 89 °C,,,> 100,> 100,,> 100,,,
"O=C(N1CCN(c2cccc(C(F)(F)F)c2)CC1)C1(c2ccccc2)CCCC1 [2.14, 1-Phenylcyclopentyl-(4-(3-(trifluoromethyl)phenyl)piperazin-1-yl)methanone]",,,77 to 79 °C,,,,,,,> 300,> 300,> 300
"O=C(OCc1ccccc1)N1CCN(c2cccc(C(F)(F)F)c2)CC1 [2.32, Benzyl 4-(3-(trifluoromethyl)phenyl)piperazine-1-carboxylate]",,,,neither the carbamate 2.32 nor the sulfonamide 2.33 analog displayed inhibitory activity,,> 300,> 1000,,> 300,,,
"O=S(=O)(c1ccccc1)N1CCN(c2cccc(C(F)(F)F)c2)CC1 [2.33, 1-(Phenylsulfonyl)-4-(3-(trifluoromethyl)phenyl)piperazine]",,,109 to 111 °C (dec.),neither the carbamate 2.32 nor the sulfonamide 2.33 analog displayed inhibitory activity,,> 300,> 1000,,> 1000,,,
